Among the data in US9169241B2, “Quinolinyloxyphenylsulfonamides” (Max-Planck-Gesellschaft Zur Forderung der Wissenschaften …, priority 2009, dated 2015) are IC50 values, retold here.

Structures are written as SMILES. Like-named read-outs stand apart in the source and are kept apart here.

For experiment [1], the target named is T1, wild type AXL (wtAXL) receptor tyrosine kinase (Homo sapiens, UniProt P30530).
T1 construct: WtAXL cDNA was cloned into vector pLXSN(ESK) and transfected into Phoenix E packaging cells; expressed in transfected cells; host or cells: NIH3T3 N7 (mouse fibroblasts), retrovirally infected, clone 22
T1 sequence (P30530 26-894): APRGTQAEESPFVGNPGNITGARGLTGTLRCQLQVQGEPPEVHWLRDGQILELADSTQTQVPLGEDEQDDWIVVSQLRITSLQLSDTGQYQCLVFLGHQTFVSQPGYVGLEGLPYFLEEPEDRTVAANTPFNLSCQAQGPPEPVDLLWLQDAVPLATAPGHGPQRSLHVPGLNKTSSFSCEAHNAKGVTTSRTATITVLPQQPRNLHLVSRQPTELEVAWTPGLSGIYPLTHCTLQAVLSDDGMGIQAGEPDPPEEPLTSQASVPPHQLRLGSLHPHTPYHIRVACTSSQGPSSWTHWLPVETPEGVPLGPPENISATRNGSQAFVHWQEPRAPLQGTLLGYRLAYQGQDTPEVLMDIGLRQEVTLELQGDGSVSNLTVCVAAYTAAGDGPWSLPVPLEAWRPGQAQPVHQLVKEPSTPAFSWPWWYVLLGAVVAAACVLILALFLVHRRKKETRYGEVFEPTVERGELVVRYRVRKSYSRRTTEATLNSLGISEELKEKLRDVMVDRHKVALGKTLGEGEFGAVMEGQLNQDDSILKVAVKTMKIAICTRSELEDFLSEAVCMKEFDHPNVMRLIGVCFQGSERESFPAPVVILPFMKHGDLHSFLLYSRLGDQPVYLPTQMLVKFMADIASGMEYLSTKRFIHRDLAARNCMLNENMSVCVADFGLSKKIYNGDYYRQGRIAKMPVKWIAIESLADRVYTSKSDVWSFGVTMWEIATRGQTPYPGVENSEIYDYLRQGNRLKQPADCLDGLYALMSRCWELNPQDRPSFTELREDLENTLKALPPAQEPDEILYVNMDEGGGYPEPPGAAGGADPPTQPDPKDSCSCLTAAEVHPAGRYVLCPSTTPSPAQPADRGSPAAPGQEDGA
The experiment can be described thus: NIH-3T3-AXL cellular kinase assay (pY-AXL-ELISA). Particulars: NIH-3T3-AXL (clone 22) cells, serum depleted, compounds 1 h; Table Ia. The experiment is classed as cell-based. The method in brief:
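NIH3T3 cells stably expressing human wild-type AXL (retroviral, puromycin-selected clones) were treated with serial compound dilutions for 1 h and lysed. AXL tyrosine phosphorylation was measured by ELISA on the lysates: biotinylated 4G10 anti-phosphotyrosine, streptavidin-alkaline phosphatase, AttoPhos fluorescence at 430/560 nm after 90 min.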
For orientation: An ELISA detects its analyte on a solid surface through an enzyme-linked reagent.

Experiment [2] has as its system tumor cell. In words: Matrigel outgrowth assay/branching assay (Table Va). The experiment is classed as cell-based. The method in brief:
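Read-out: microscopic images of invasive branching structures at 48 h, 72 h and 96 h. Cells sat on a 3 mg/ml Matrigel layer (set 1 h, 37° C) with compound at 3.125, 1.56 and 0.78 μM or DMSO. A concentration counts as positive only with complete branching inhibition.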

The mark [3] stands for this setting: Homo sapiens, C8161 cells, read-out: Total branching inhibition in Matrigel C8161.
Setting [4] is: Homo sapiens, Hs-578T, Hs578T cells, read-out: Total branching inhibition in Matrigel Hs578T.
The mark [5] stands for this setting: U118 cells, read-out: Total branching inhibition in Matrigel U118.
The mark [6] stands for this setting: U138 cells, read-out: Total branching inhibition in Matrigel U138.

In the case of `COc1cc2c(Oc3ccc(NS(=O)(=O)c4c(Cl)cccc4Cl)cc3F)ccnc2cc1OCCCN1CCCCC1` [Example 6, 2,6-Dichloro-N-{3-fluoro-4-[6-methoxy-7-(3-piperidin-1-yl-propoxy)-quinolin-4-yloxy]-phenyl}-benzenesulfonamide], in experiment [1], the IC50 was less than 500 nM.

In turn, `COc1cc2c(Oc3ccc(NS(=O)(=O)c4c(F)cccc4F)cc3F)ccnc2cc1OCCCN1CCCCC1` [Example 11, 2,6-Difluoro-N-{3-fluoro-4-[6-methoxy-7-(3-piperidin-1-yl-propoxy)-quinolin-4-yloxy]-phenyl}-benzenesulfonamide] came in with an IC50 in experiment [1] of less than 500 nM.

For `COc1cc2c(Oc3ccc(NS(=O)(=O)c4ccccc4[N+](=O)[O-])cc3F)ccnc2cc1OCCCN1CCN(C)CC1` [Example 21, N-(3-Fluoro-4-{6-methoxy-7-[3-(4-methyl-piperazin-1-yl)-propoxy]-quinolin-4-yloxy}-phenyl)-2-nitro-benzenesulfonamide], the IC50 in experiment [2] (setting [3]) was 5 to 50 µM; in experiment [2] (setting [4]) it was not above 5 µM; in experiment [2] (setting [5]), 5 to 50 µM; in experiment [2] (setting [6]) it was 5 to 50 µM.

For the compound `COc1cc2c(Oc3ccc(NS(=O)(=O)c4ccccc4OC(F)(F)F)cc3F)ccnc2cc1OCCCN1CCN(C)CC1` [Example 25, N-(3-Fluoro-4-{6-methoxy-7-[3-(4-methyl-piperazin-1-yl)-propoxy]-quinolin-4-yloxy}-phenyl)-2-trifluoromethoxy-benzenesulfonamide], the IC50 in experiment [2] (setting [3]) is not above 5 µM; in experiment [2] (setting [4]) it was not above 5 µM; in experiment [2] (setting [5]) it was not above 5 µM; in experiment [2] (setting [6]) it was 5 to 50 µM.

Consider `COc1cc2c(Oc3ccc(NS(=O)(=O)c4ccccc4Cl)cc3F)ccnc2cc1OCCCN1CCN(C)CC1` [Example 29, 2-Chloro-N-(3-fluoro-4-{6-methoxy-7-[3-(4-methyl-piperazin-1-yl)-propoxy]-quinolin-4-yloxy}-phenyl)-benzenesulfonamide], for which the IC50 was not above 5 µM in experiment [2] (setting [3]), not above 5 µM in experiment [2] (setting [4]), not above 5 µM in experiment [2] (setting [5]) and 5 to 50 µM in experiment [2] (setting [6]).

For the compound `COc1cc2c(Oc3ccc(NS(=O)(=O)c4c(Cl)cccc4Cl)cc3F)ccnc2cc1OCCCN1CCN(C)CC1` [Example 32, 2,6-Dichloro-N-(3-fluoro-4-{6-methoxy-7-[3-(4-methyl-piperazin-1-yl)-propoxy]-quinolin-4-yloxy}-phenyl)-benzenesulfonamide], the IC50 in experiment [2] (setting [3]) is not above 5 µM; in experiment [2] (setting [4]) it was not above 5 µM; in experiment [2] (setting [5]), not above 5 µM; in experiment [2] (setting [6]), 5 to 50 µM.

Consider `COc1cc2c(Oc3ccc(NS(=O)(=O)c4ccccc4OC)cc3F)ccnc2cc1OCCCN1CCN(C)CC1` [Example 33, N-(3-Fluoro-4-{6-methoxy-7-[3-(4-methyl-piperazin-1-yl)-propoxy]-quinolin-4-yloxy}-phenyl)-2-methoxy-benzenesulfonamide], for which the IC50 in experiment [2] (setting [3]) was not above 5 µM; in experiment [2] (setting [4]), not above 5 µM; in experiment [2] (setting [5]) it was not above 5 µM; in experiment [2] (setting [6]), 5 to 50 µM.

Take `COc1cc2c(Oc3ccc(NS(=O)(=O)c4ccccc4[N+](=O)[O-])cc3F)ccnc2cc1OCCCN1CCCC(C)C1` (stereo not drawn) [Example 40, N-(3-Fluoro-4-{6-methoxy-7-[3-(3-methyl-piperidin-1-yl)-propoxy]-quinolin-4-yloxy}-phenyl)-2-nitro-benzenesulfonamide]: the IC50 in experiment [1] was less than 500 nM.

On to `COc1cc2c(Oc3ccc(NS(=O)(=O)c4cccc(C#N)c4)cc3F)ccnc2cc1OCCCN1CCCC(C)C1` (stereo not drawn) [Example 41, 3-Cyano-N-(3-fluoro-4-{6-methoxy-7-[3-(3-methyl-piperidin-1-yl)-propoxy]-quinolin-4-yloxy}-phenyl)-benzenesulfonamide], for which the IC50 is not above 5 µM in experiment [2] (setting [3]), not above 5 µM in experiment [2] (setting [4]), not above 5 µM in experiment [2] (setting [5]) and 5 to 50 µM in experiment [2] (setting [6]).

Consider `COc1cc2c(Oc3ccc(NS(=O)(=O)c4ccccc4OC(F)(F)F)cc3F)ccnc2cc1OCCCN1CCCC(C)C1` (stereo not drawn) [Example 45, N-(3-Fluoro-4-{6-methoxy-7-[3-(3-methyl-piperidin-1-yl)-propoxy]-quinolin-4-yloxy}-phenyl)-2-trifluoromethoxy-benzenesulfonamide], for which the IC50 in experiment [1] was less than 500 nM.

Regarding `COc1cc2c(Oc3ccc(NS(=O)(=O)c4cccc(C)c4)cc3F)ccnc2cc1OCCCN1CCCC(C)C1` (stereo not drawn) [Example 70, N-(3-Fluoro-4-{6-methoxy-7-[3-(3-methyl-piperidin-1-yl)-propoxy]-quinolin-4-yloxy}-phenyl)-3-methyl-benzenesulfonamide], the IC50 in experiment [2] (setting [3]), in experiment [2] (setting [4]), in experiment [2] (setting [5]) and in experiment [2] (setting [6]) was not above 5 µM each time.

With `COc1cc2c(Oc3ccc(NS(=O)(=O)c4ccc(F)c(C#N)c4)cc3F)ccnc2cc1OCCCN1CCCC(C)C1` (stereo not drawn) [Example 72, 3-Cyano-4-fluoro-N-(3-fluoro-4-{6-methoxy-7-[3-(3-methyl-piperidin-1-yl)-propoxy]-quinolin-4-yloxy}-phenyl)-benzenesulfonamide], the IC50 in experiment [2] (setting [3]), in experiment [2] (setting [4]), in experiment [2] (setting [5]) and in experiment [2] (setting [6]) was not above 5 µM each time.

Take `COc1cc2c(Oc3c(Cl)cc(NS(=O)(=O)c4c(F)cccc4F)cc3Cl)ccnc2cc1OCCCN1CCN(C)CC1` [Example 88, N-(3,5-Dichloro-4-{6-methoxy-7-[3-(4-methyl-piperazin-1-yl)-propoxy]-quinolin-4-yloxy}-phenyl)-2,6-difluoro-benzenesulfonamide]: the IC50 was not above 5 µM in experiment [2] (setting [3]), 5 to 50 µM in experiment [2] (setting [4]), 5 to 50 µM in experiment [2] (setting [5]) and 5 to 50 µM in experiment [2] (setting [6]).

As for `COc1cc2c(Oc3ccc(NS(=O)(=O)c4ccccc4C(F)(F)F)cc3F)ccnc2cc1OCC(=O)N(C)C` [Example 93, 2-{4-[2-Fluoro-4-(2-trifluoromethyl-benzenesulfonylamino)-phenoxy]-6-methoxy-quinolin-7-yloxy}-N,N-dimethyl-acetamide], the IC50 in experiment [2] (setting [3]) is not above 5 µM; in experiment [2] (setting [4]), not above 5 µM; in experiment [2] (setting [5]) it was not above 5 µM; in experiment [2] (setting [6]), 5 to 50 µM.

Take `COc1cc2c(Oc3ccc(NS(=O)(=O)c4ccccc4C(F)(F)F)cc3F)ccnc2cc1OCCCNC1CCOCC1` [Example 95, N-(3-Fluoro-4-{6-methoxy-7-[3-(tetrahydro-pyran-4-ylamino)-propoxy]-quinolin-4-yloxy}-phenyl)-2-trifluoromethyl-benzenesulfonamide]: the IC50 in experiment [2] (setting [3]) is not above 5 µM; in experiment [2] (setting [4]), not above 5 µM; in experiment [2] (setting [5]) it was 5 to 50 µM; in experiment [2] (setting [6]), 5 to 50 µM.

Turning to `COc1cc2c(Oc3ccc(NS(=O)(=O)c4ccccc4C(F)(F)F)cc3F)ccnc2cc1OCCCN1CCCCC1C` (stereo not drawn) [Example 99, N-(3-Fluoro-4-{6-methoxy-7-[3-(2-methyl-piperidin-1-yl)-propoxy]-quinolin-4-yloxy}-phenyl)-2-trifluoromethyl-benzenesulfonamide], the IC50 in experiment [2] (setting [3]) was 5 to 50 µM; in experiment [2] (setting [4]) it was not above 5 µM; in experiment [2] (setting [5]), not above 5 µM; in experiment [2] (setting [6]), not above 5 µM.

Take `COc1cc2c(Oc3ccc(NS(=O)(=O)c4ccccc4C(F)(F)F)cc3F)ccnc2cc1OCCCN(C)C` [Example 100, N-{4-[7-(3-Dimethylamino-propoxy)-6-methoxy-quinolin-4-yloxy]-3-fluoro-phenyl}-2-trifluoromethyl-benzenesulfonamide]: the IC50 in experiment [2] (setting [3]) was not above 5 µM; in experiment [2] (setting [4]), not above 5 µM; in experiment [2] (setting [5]), not above 5 µM; in experiment [2] (setting [6]) it was 5 to 50 µM.

Consider `COc1cc2c(Oc3cccc(NS(=O)(=O)c4ccccc4C(F)(F)F)c3)ccnc2cc1OCCCN1CCN(C)CC1` [Example 102, N-(3-{6-Methoxy-7-[3-(4-methyl-piperazin-1-yl)-propoxy]-quinolin-4-yloxy}-phenyl)-2-trifluoromethyl-benzenesulfonamide], for which the IC50 in experiment [2] (setting [3]) is not above 5 µM; in experiment [2] (setting [4]), not above 5 µM; in experiment [2] (setting [5]) it was not above 5 µM; in experiment [2] (setting [6]) it was 5 to 50 µM.
